Legend:
RDM4 line = test: Proliferation test (UptiBlue) on RDM4 line; format: cell-based, mouse; details: 72 hours
Protocol: (§1) The products are tested on different cell lines. The cells used are RDM4 from a murine T lymphoma and a MOLT-4 line originating from an acute lymphoblastic leukemia. These cancer lines both express the p53 protein, unlike the HL-60 cells from a human promyelocytary leukemia where, following deletion of its gene, p53 is absent.
(§2) All of these cells are cultivated in RPMI 1640-Glutamax, supplemented by 10% calf foetal serum heat inactivated at 56° C. for 30 minutes, 1 mM sodium pyruvate, 1 mM non-essential amino acids and 50 μg/mL gentamycine (Life Technologies, Cergy Pontoise, France). The cultures are kept in an incubator at 37° C. with a moisture saturated atmosphere, with 5% CO2.
(§3) This test uses the UptiBlue reagent (Interchim, Montluçon, France), metabolised by the living cells. The cells are incubated on plates with 96 wells with 10^4 cells/well (200 μL) with the product and cultivated for 72 hours. Then, 20 μL UptiBlue are added to each well. After 3 hours incubation, the fluorescence of the samples contained in the plates is measured at 590 nm (excitation at 560 nm), using a Fluorolite 1000 microplate reader (Dynex technologies, Issy-Les-Moulineaux, France).
The potential anti-cancers are first of all selected on the RDM4 line. The effect of the different organo-ruthenium compounds upon the cell viability is firstly determined by a proliferation test as a function of the product concentration. The activity of the compounds derived from Ru is compared to that of cisplatinum. The exposure of the RDM4 cells to these derivatives is translated by a dose-dependent reduction in their proliferation. Therefore, the effect is dependent upon the organic complex which surrounds the Ru nucleus. The inhibition concentration of the growth of 50% of the cells (IC50) is determined for each of the products. […] The ruthenium derivatives showing an excessive IC50 (>50 μM) were eliminated from the biological study.

NH32 = test: Proliferation test (UptiBlue) on NH32; format: cell-based, human; details: 72 hours, unit inferred
Protocol: The influence of the p53 protein upon the effects induced by the products was determined by using the human lymphoblastoid line TK6 (p53 wild-type) and its NH32 variant of which the p53 gene was totally inactivated by double homologous recombination (Chuang et al, 1999). The TK6 cells originate from the American Tissue Culture Collection (ATGC, Manassas, Va., USA). The NH32 cells were supplied by H. L. Liber (Chuang et al, 1999).
as §2
as §3, with “France). […]” for “France).”

MOLT-4 = test: Proliferation test (UptiBlue) on MOLT-4; format: cell-based, human; details: 72 hours, UptiBlue; unit inferred; read-out: IC50 (Molt-4)
Protocol: as §1, §2
as §3, with “France). […]” for “France).”

WTK1 = test: Proliferation test (UptiBlue) on WTK1; format: cell-based, human; details: 72 hours, unit inferred
Protocol: as §2, §3
(§4) Compound 9 on other cell lines gives the following IC50: • 9 (NH32):3; 9 (Molt-4):3.8; 9 (WTK1): 3; 9 (U-937): 3. • RDM4: lymphoma, mouse AKR • TK6: human lymphoblastoid line • NH32: TK6 variant, not expressing p53 (“p53 knock-out”) • WTK1: other TK6 variant, expressing a p53 mutated gene • MOLT-4: human T lymphoblastic leukemia • U-937: human promonocyte leukemia Proliferation Test for the RDM4 Line with each Compound

U-937 = test: Proliferation test (UptiBlue) on U-937; format: cell-based, human; details: 72 hours, unit inferred
Protocol: as §2, §3, §4

RDM4 [1] = test: Apoptosis by marking with Annexin-V on RDM4; format: cell-based, mouse
Protocol: Cell death is measured by a first specific marking of the apoptosis. The externalisation of the anionic phospholipids, normally located on the inner layer of the plasmic membrane, is one of the precocious markers of apoptosis (Martin et al, 1996). Annexin-V is a protein which fixes specifically onto the phosphatidylserines in the presence of calcium. When Annexin-V is coupled to a fluorochrome, it makes it possible to quantify the apoptotic cells by flux cytometry.
The control cells are treated with the equivalent volume of solvent (ethanol). […] After 72 hrs, the apoptosis rate is still as low as that of the control cells. On the other hand, with treatment at 45 μM, this rate already reaches 70% at 24 hrs and exceeds 99% after 48 hrs—a sign of significant apoptosis induction.

RDM4 [2] = test: DNA fragmentation by marking with propidium iodure on RDM4; format: cell-based, mouse
Description: A second specific marking of apoptosis is the fragmentation of DNA between the nucleosomes. The fragmented DNA is located in the apoptotic bodies in the terminal phase of apoptosis. This DNA is hypodiploid and so less in quantity than that present in normal cells. It can be quantified by flux cytometry after permeabilisation of the cell membranes and marking with PI. The quantity of DNA in a normal cell is 2n in the G0/G1 phase and 4n in the G2 phase. Therefore, the sub-G0 DNA in a quantity of less than 2n has a weaker fluorescence intensity.
This phenomenon tends to diminish after 48 hrs of treatment. On the other hand, when the cells are treated with 45 μM, the formation of hypodiploid particles, visualised by the sub-G0 DNA content, is less than 10% at 24 hrs and exceeds 50% at 48 hrs such as to reach 60% at 72 hrs. […] The quantity of hypodiploid particles in the control cells remains less than 4% over this same period.

[3] = tested on: A172, HS683, N2A, and SH5Y; test: MTT test on glioblastoma and neuroblastoma lines; format: cell-based, human; details: 48 hrs treatment; compared with cisplatinum
Protocol: FIG. 1: The A172 cells were cultivated on plates with 96 wells in DMEM medium with 10% calf serum. At 30% confluence, the cells were treated for 48 hrs with cisplatinum or the various compounds derived from ruthenium in the concentrations indicated (1, 5, 15, 50 μM). The quantity of cells present in the wells was evaluated by an MTT (MTT, Sigma) test of which the products of the reaction are quantified with an Elisa plate reader (Metertech, USA) (490-650 nm). The results obtained were related to the values of the control condition (100% viability). The graphs show an average of 8 points with the typical spacings over one experiment representative of 4 carried out. The thick black line indicates the IC50 for each graph.
TABLE 2: a summary of the results obtained on various cell lines and primary glial cultures. The experiments were carried out under the same conditions as those described for the A172 cells. Each IC50 is an indicative value obtained over 4 independent experiments.
(§5) The first step towards characterising the anticancerous effects of the compounds derived from ruthenium consists of testing their activity on tumoral lines kept in culture and comparing these effects on lines which have different characteristics as regards resistance to the anticancer treatments. Two lines of human glioblastomas (A172, HS683) and two lines of neuroblastomas (N2A and SH5Y) were used in order to test the cytostatic effects of the compounds according to the invention. Cisplatinum was chosen as the cytotoxic comparison agent. In a first approach, an MTT test was used to measure the activity of a mitochondrial enzyme, and this gives an estimate of the number of cells. Then, the cytotoxic effects of the compounds according to the invention were characterised in greater detail by analysing the morphology of the nucleus and the activation of caspase 3—two markers of cell apoptosis.

A172 glioblastoma cells = test: Nucleus morphology and caspase 3 activation in A172 cells; format: cell-based, human; details: for nuclear condensation and fragmentation: 48 hrs treatment
Description: FIG. 2: A—The A172 cells were cultivated on glass slides. […] The cells were then fixed in 4% paraformaldehyde, permeabilised with 0.1% NP40 and marked with Hoechst dye (blue) and the anti-p20 antibody (active fragment of caspase 3, in red). The cells were then observed under the fluorescence microscope. B—Graphic representation of the number of cells with an apoptotic, fragmented or condensed nucleus. The bars are an average of two slides from one experiment representative of 3 carried out. C—In parallel, proteic extracts were prepared from cells treated with various drugs (cisplatinum 15 μM; CDR225 μM; CDR615 μM; CDR915 μM) and following denaturation the extracts were deposited on a !0% SDS-Page gel. After migration, the proteins were transferred onto nitrocellulose (Biorad, 0.2 μm) and the p20 fragment of the caspase 3 was detected by Western blot with an anti-p20 antibody (1/1000, R&D System).
as §5

Structure (SMILES)	IC50 (RDM4 line)	IC50 (NH32)	IC50 (MOLT-4)	IC50 (WTK1)	IC50 (U-937)	apoptosis rate (Annexin-V) (RDM4 [1]; 15 μM, up to 72 hrs)	apoptosis rate (Annexin-V) (RDM4 [1]; 45 μM, 24 hrs)	cell cycle distribution (propidium iodure) (RDM4 [2]; 15 μM, first two days)	hypodiploid particles (sub-G0 DNA content) (RDM4 [2]; 45 μM, 72 hrs)	reduction of the number of tumoral cells (MTT) [3]	nuclear condensation and fragmentation (A172 glioblastoma cells)	proteic levels of the active fragment of caspase 3 (Western blot) (A172 glioblastoma cells; cisplatinum 15 μM, CDR6 15 μM, CDR9 15 μM)
CC#N.CC#N.CN(C)Cc1cccc[c]1[Ru+].F[P-](F)(F)(F)(F)F.c1ccc(-c2ccccn2)nc1 [Compound 13, [Ru-2-(CH2NMe2)—C6H4-(bipy) (NCMe)2]PF6]	11 µM											
CC#N.CC#N.CC#N.CP(C)c1ccccc1.F[P-](F)(F)(F)(F)F.[Ru+][c]1ccccc1-c1ccccn1 [Compound 9, [Ru (C6H4-2-C5H4N) (PMe2Ph) (NCMe)3]PF6]	12 µM	3 µM	3.8 µM	3 µM	3 µM	does not shown any effect	70%	accumulation in the G0/G1 phase	60%	at a concentration similar to or lower than that of cisplatinum	induce nuclear condensation and fragmentation characteristic of apoptosis	increasing the proteic levels of the active fragment of caspase 3
CC#N.CC#N.Cc1ccnc(-c2cc(C)ccn2)c1.F[P-](F)(F)(F)(F)F.[Ru+][c]1ccccc1-c1ccccn1 [Compound 12, [Ru(C6H4-2-C5H4N)(4,4′-dimethyl-2,2′-bipyridine)(NCMe)2]PF6]	9 µM									at a concentration similar to or lower than that of cisplatinum	induce nuclear condensation and fragmentation characteristic of apoptosis	

Source: patent US8193175B2, “Ruthenium complexes for treating cancers” (Universite de Strasbourg, priority 2004, dated 2012)
